Test results from US11213497B2, “Antibiofilm formulations” (ARIZONA BOARD OF REGENTS ON BEHALF OF NORTHERN ARIZONA …, priority 2017, dated 2022).

How the values were obtained:
[1] = according to the literature; cited from earlier work
MSSA = experiment: MBEC of geranic acid in solution (Hepes buffer); assay type: cell-based, Staphylococcus aureus; details: 50 mM Hepes buffer
From the text: Neutral species in DES may be uniquely important to potentiate otherwise bioactive IL. […] At this pH, most of the acid is expected to be found in the protonated state (pKa is ˜5-5.5 according to the literature). […] Many different DES can be envisioned with this same platform of 1:1 anion:cation as an EPS disruptor/delivery agent with a neutral acid (or even a completely neutral species such as an isoprenoid hydrocarbon) as a molecule designed to saturate both leaflets of a cellular membrane.

[2] = test system: mammalian skin cell lines

Method for MSSA biofilms: Biofilms of Methicillin-sensitive Staphylococcus aureus (MSSA) were established on the pegs of a biofilm inoculator (Innovotech) according to the manufacturer's instructions. Briefly, a bacterial colony of MSSA was inoculated from an agar streak plate into cation-adjusted Mueller-Hinton broth (5 mL) and grown to confluence overnight in a shaker incubator (37° C., 200 rpm). The confluent culture was then diluted into fresh media (1:100, v:v), and grown to an optical density (OD) of 0.4 (approximately three hours). At this time, the cultures were again diluted into fresh media (1:50, v:v) and 200 μL of the resultant dilution were placed into each well of an Innovotech 96 well biofilm inoculator plate. The inoculator was added to the wells of the culture plate and it was placed in a shaker incubator overnight (37° C., 150 rpm). The spent media was decanted each morning and refreshed with equal volumes of new media, and the inoculator was again placed in a shaker incubator overnight (37° C., 150 rpm). […]
A 10% (v:v) stock solution of each DES in CAMHB was serially diluted into fresh CAMHB in the wells of a 96 well plate. […] MSSA cells were allowed to grow overnight in the shaker incubator and viability was assessed via measurement of optical density at 600 nm using a plate reader (Synergy HT). […]

Q: Which results are given for `CC(C)=CCC/C(C)=C/C(=O)O` [geranic acid]?
A: pKa [1]: 5-5.5; MBEC (MSSA; pH=6.4, 0.1% Tween 20): 2.5 % in water; MBEC (MSSA; pH=8.4, 0.1% Tween 20): > 10%

Q: For “Choline Geranate Ionic Liquid [2; CAGE (1:1)]”, which “MBEC (% by volume)” value (MSSA biofilms; 2-hour challenge, 72 hr MSSA biofilms, dilutions in CAMHB 0.313-10% (v:v)) is on record?
A: The value was 5-10 % by volume.

Q: And the “MBEC against MSSA” value (MSSA biofilms; in water)?
A: The value was 5-10%.

Q: For choline geranate [CAGE], which “Toxicity to mammalian skin cell lines” value [2] is on record?
A: The value was “generally non-toxic to mammalian skin cell lines”.
